Measured values: ChEMBL document CHEMBL1201862, “PubChem BioAssay data set” (2004)
Active and inactive are the calls of the source.

Tests used:
[1] = biological target: DNA dC->dU-editing enzyme APOBEC-3G (Homo sapiens, UniProt Q9HC16); experiment: Dose Response confirmation of small molecule APOBEC3G DNA Deaminase Inhibitors via a fluorescence-based single-stranded DNA deaminase assay. [Related pubchem assays (depositor defined):AID493012, AID493028]; type: functional
[2] = biological target: T1, Voltage-gated N-type calcium channel alpha-1B subunit/Amyloid beta A4 precursor protein-binding family A member 1 (Homo sapiens, UniProt Q00975+Q02410); type: protein assay
[3] = C. albicans growth with fluconazole, confirmation, fluorescence, retest (AID 2467); type: functional, cell-based
[4] = biological target: T2, Replicative DNA helicase DnaB (Mycobacterium tuberculosis, UniProt P9WMR3); experiment: DnaB intein splicing inhibitors, dose response, biochemical, cell-free fluorescence (AID 449749); type: functional
T2 sequence (P9WMR3 whole entry): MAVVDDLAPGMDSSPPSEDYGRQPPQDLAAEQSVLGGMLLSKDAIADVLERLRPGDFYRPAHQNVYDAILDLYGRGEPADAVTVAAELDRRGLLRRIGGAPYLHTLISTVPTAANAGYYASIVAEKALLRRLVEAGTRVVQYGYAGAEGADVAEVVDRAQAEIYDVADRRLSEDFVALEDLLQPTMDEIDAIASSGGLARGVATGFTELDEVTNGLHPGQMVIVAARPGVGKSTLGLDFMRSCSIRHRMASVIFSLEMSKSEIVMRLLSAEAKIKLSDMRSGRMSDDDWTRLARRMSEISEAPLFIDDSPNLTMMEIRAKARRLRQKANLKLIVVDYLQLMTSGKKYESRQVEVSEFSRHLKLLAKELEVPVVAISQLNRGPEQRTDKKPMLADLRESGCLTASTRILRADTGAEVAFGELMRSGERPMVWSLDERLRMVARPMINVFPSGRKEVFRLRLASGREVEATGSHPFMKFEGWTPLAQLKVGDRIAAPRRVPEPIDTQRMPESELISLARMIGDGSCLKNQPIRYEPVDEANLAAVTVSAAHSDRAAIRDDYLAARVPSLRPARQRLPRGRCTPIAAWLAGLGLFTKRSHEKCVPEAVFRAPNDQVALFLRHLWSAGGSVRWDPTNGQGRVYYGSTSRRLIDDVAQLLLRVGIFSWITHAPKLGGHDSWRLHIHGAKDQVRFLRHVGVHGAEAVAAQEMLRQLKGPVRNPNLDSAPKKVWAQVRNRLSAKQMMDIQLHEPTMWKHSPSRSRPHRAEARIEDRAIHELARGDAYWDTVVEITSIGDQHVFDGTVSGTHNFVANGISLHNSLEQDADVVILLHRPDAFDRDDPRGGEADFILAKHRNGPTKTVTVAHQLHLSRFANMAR

[5] = biological target: T3, Protein RecA (Mycobacterium tuberculosis, UniProt P9WHJ3); experiment: Fluorescence Cell-Free Homogeneous Dose Retest to Identify Inhibitors of RecA-Intein Splicing Activity. [Related pubchem assays (depositor defined):AID2097, AID2223, AID489010, AID492950]; type: functional
T3 sequence (P9WHJ3 whole entry): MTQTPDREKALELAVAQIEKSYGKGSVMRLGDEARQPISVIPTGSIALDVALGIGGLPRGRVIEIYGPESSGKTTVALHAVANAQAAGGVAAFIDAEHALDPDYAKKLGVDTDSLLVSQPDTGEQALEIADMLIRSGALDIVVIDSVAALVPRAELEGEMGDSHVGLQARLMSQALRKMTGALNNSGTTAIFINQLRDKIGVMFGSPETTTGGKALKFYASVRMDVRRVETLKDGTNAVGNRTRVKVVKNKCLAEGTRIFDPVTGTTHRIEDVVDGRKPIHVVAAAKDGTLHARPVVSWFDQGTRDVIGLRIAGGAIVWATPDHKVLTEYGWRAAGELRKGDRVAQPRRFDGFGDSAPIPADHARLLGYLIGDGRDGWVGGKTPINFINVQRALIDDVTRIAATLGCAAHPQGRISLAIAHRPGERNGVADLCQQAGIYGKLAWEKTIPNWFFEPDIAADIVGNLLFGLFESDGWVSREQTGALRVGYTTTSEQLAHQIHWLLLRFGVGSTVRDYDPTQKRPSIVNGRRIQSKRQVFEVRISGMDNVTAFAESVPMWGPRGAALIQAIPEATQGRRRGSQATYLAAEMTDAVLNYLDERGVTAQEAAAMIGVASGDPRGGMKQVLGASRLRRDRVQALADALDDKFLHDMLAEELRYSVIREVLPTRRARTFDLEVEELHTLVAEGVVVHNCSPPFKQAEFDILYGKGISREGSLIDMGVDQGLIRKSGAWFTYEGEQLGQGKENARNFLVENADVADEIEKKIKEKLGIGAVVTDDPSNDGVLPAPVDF

[6] = biological target: Induced myeloid leukemia cell differentiation protein Mcl-1 (Homo sapiens, UniProt Q07820); type: functional
[7] = biological target: T1, Voltage-gated N-type calcium channel alpha-1B subunit/Amyloid beta A4 precursor protein-binding family A member 1; experiment: disruptors of Mint-PDZ/N-type channel peptide interaction – biochemical, HTRF, set 2, SAR follow-up (AID 434980); type: functional
[8] = biological target: T1, Voltage-gated N-type calcium channel alpha-1B subunit/Amyloid beta A4 precursor protein-binding family A member 1; experiment: disruptors of Mint-PDZ/N-type channel peptide interaction – biochemical, HTRF, SAR follow-up (AID 2489); type: functional
[9] = biological target: T1, Voltage-gated N-type calcium channel alpha-1B subunit/Amyloid beta A4 precursor protein-binding family A member 1; type: protein assay; remark: listed apart in the source
[10] = NIH-3T3 fibroblast cytotoxicity, dose response, cytotoxicity control, cell-based, fluorescence, Alamar Blue, secondary assay (AID 2327); type: functional;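 further: NIH-3T3 mouse fibroblasts cultured with fluconazole at 8 µg/mL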
[11] = biological target: SUMO E1/E2 (Homo sapiens, UniProt P63279+Q9UBE0+Q9UBT2); experiment: SAR analysis of SUMOylation using HTRF in an in-Vitro dose response assay. [Related pubchem assays (depositor defined):AID2006, AID2011, AID2018, AID2069, AID2658]; type: functional
[12] = biological target: T4, Short transient receptor potential channel 4 (Mus musculus, UniProt Q9QUQ5); experiment: mouse TRPC4 channel inhibitors, dose response, cell-based, HEK293 TRPC4/mu-opioid, Fluo-4 calcium (AID 434942); type: functional;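 further: potency of inhibitors blocking the TRPC4 calcium response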
T4 sequence (Q9QUQ5 whole entry): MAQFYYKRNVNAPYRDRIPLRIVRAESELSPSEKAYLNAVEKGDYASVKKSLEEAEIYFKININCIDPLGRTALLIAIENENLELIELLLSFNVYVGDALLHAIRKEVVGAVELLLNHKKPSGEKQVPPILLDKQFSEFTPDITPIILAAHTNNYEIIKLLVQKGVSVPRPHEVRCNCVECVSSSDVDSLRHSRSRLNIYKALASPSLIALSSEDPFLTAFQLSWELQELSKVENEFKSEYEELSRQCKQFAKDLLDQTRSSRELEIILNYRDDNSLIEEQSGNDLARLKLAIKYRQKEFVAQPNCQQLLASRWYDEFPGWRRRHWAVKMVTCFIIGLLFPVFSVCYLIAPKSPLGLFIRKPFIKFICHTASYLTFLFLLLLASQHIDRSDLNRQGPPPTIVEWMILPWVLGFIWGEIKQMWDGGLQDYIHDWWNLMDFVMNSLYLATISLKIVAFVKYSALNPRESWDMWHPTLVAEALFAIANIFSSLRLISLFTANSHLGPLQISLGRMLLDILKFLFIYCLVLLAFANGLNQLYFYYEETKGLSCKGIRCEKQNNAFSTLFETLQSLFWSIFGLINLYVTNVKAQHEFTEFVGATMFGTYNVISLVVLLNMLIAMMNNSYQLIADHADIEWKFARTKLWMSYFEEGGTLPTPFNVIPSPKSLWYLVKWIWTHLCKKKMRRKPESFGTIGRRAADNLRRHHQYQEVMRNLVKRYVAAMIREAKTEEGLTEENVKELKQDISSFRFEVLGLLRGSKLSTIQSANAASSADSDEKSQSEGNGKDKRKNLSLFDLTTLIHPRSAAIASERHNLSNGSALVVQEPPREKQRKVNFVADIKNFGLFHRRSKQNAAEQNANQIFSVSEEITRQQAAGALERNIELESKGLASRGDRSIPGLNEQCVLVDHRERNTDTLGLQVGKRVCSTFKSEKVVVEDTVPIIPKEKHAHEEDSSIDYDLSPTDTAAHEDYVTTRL

[13] = biological target: Peroxisome proliferator-activated receptor gamma/Nuclear receptor coactivator 2 (Homo sapiens, UniProt P37231); experiment: (§1) TR-FRET dose response biochemical High Throughput Screening assay for agonists of the steroid receptor coactivator 2 (SRC-2) recruitment by the peroxisome proliferator-activated receptor gamma (PPAR gamma): non-selective agonists. [Related pubchem assays: 1297, 1032 ]; type: functional
[14] = biological target: Peroxisome proliferator-activated receptor gamma/Nuclear receptor coactivator 3 (Homo sapiens, UniProt P37231); experiment: as §1, with “3 (SRC-3)” for “2 (SRC-2)”, “1301 (Confirmation screen.), 1048 (Primary screen.)]” for “1297, 1032 ]”; type: functional
[15] = biological target: Nucleotide-binding oligomerization domain-containing protein 2 (Homo sapiens, UniProt Q9HC29); experiment: NOD2 signaling inhibitors, cell-based, luminescence, uHTS, HEK293 (AID 1566); type: functional
[16] = biological target: Peroxisome proliferator-activated receptor gamma/Nuclear receptor coactivator 1 (Homo sapiens, UniProt P37231); experiment: as §1, with “1 (SRC-1)” for “2 (SRC-2)”, “assays (depositor defined):AID1300, AID1808, AID504735, AID631]” for “assays: 1297, 1032 ]”; type: protein assay
[17] = test system: HEK293; experiment: NOD2 signaling inhibitors in MDP-stimulated cells, cell-based, uHTS, luminescence (AID 2001); type: functional; conditions: Homo sapiens
[18] = test system: HEK293; experiment: cells; type: functional, cell-based; conditions: Homo sapiens
[19] = test system: HEK293; experiment: cells; type: functional, cell-based; conditions: Homo sapiens; remark: listed apart in the source
[20] = test system: HEK293; experiment: NOD1 signaling inhibitors, primary screen, cell-based, luminescence, uHTS (AID 1578); type: functional; conditions: Homo sapiens
[21] = test system: HEK293; experiment: cells; type: functional, cell-based; conditions: Homo sapiens; remark: listed apart in the source
[22] = biological target: Eukaryotic translation initiation factor 4E (Mus musculus, UniProt P63073); experiment: eIF4E–eIF4G protein interaction inhibitors, dose response, biochemical, TR-FRET (AID 855); type: functional;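 further: potency for disrupting eIF4E binding to eIF4GI seen as loss of FRET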
[23] = biological target: T5, Fatty acid synthase (Homo sapiens, UniProt P49327); experiment: FAS thioesterase domain inhibitors, dose response, biochemical, endpoint fluorescence intensity, uHTS hits (AID 624327); type: functional;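 further: fluorescence from hydrolysis of an O-methyl fluorescein acyl ester substrate by the enzyme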
[24] = biological target: T5, Fatty acid synthase; experiment: FAS thioesterase domain inhibitors, dose response, biochemical, kinetic fluorescence intensity (AID 624326); type: functional;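 further: rate of fluorescence rise from hydrolysis of a fluorogenic O-methyl fluorescein ester substrate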
[25] = inhibitors of clade B AD8 Env fusion, dose response, cell-based, cherry-pick (AID 652062); type: functional;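 further: luciferase signal from cell-cell fusion driven by HIV-1 clade B AD8 Env; potency is for inhibitors of fusion seen as a drop in luminescence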
[26] = inhibitors of HIV Env-driven cell fusion, dose response, cherry-pick (AID 652057); type: functional, cell-based
[27] = biological target: Neurotensin receptor type 1 (Homo sapiens, UniProt P30989); type: functional;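 further: Image-based confirmatory dose-response assay measuring agonist activity at NTR1; NTR1-expressing U2OS osteosarcoma cells imaged for beta-arrestin GFP spot formation; agonist potency where compounds increase beta-arrestin recruitment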
[28] = CEM21 lymphoblast cell cytotoxicity, dose response, cytotoxicity control for viral fusion inhibitor project, CellTiter-Glo luminescence, cherry-picked (AID 652042); type: functional, cell-based;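 further: potency for signal decrease meaning cytotoxicity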

Chain of Nucleotide-binding oligomerization domain-containing protein 2 (Q9HC29 whole entry, the tested form may be a part): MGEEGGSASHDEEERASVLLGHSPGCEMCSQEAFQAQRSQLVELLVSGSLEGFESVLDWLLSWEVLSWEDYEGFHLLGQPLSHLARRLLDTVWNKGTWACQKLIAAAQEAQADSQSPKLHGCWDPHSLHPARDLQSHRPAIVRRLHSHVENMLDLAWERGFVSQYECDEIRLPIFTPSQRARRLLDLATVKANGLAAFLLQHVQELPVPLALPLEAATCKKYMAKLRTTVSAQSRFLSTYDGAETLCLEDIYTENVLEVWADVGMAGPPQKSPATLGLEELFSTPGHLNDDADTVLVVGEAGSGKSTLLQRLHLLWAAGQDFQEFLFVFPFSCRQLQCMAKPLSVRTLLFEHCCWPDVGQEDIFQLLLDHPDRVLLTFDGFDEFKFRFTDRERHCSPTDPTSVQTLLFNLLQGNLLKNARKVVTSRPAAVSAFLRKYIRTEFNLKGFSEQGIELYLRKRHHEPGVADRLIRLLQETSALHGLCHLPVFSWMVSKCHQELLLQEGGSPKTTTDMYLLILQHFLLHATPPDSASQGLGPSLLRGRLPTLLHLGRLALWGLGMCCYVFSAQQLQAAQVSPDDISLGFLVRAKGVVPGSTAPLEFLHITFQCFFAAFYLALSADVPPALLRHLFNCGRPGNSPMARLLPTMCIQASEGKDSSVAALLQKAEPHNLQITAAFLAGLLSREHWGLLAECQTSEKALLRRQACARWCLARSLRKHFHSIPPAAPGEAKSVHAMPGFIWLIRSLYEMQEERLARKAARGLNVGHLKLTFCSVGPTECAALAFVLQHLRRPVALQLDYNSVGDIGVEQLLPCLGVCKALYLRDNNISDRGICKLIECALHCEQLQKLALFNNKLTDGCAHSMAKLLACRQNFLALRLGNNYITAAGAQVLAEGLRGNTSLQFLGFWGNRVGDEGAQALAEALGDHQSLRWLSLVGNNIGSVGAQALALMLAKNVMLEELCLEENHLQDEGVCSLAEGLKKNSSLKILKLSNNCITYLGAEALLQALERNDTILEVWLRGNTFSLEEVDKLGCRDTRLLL
T1 sequence (Q00975 whole entry): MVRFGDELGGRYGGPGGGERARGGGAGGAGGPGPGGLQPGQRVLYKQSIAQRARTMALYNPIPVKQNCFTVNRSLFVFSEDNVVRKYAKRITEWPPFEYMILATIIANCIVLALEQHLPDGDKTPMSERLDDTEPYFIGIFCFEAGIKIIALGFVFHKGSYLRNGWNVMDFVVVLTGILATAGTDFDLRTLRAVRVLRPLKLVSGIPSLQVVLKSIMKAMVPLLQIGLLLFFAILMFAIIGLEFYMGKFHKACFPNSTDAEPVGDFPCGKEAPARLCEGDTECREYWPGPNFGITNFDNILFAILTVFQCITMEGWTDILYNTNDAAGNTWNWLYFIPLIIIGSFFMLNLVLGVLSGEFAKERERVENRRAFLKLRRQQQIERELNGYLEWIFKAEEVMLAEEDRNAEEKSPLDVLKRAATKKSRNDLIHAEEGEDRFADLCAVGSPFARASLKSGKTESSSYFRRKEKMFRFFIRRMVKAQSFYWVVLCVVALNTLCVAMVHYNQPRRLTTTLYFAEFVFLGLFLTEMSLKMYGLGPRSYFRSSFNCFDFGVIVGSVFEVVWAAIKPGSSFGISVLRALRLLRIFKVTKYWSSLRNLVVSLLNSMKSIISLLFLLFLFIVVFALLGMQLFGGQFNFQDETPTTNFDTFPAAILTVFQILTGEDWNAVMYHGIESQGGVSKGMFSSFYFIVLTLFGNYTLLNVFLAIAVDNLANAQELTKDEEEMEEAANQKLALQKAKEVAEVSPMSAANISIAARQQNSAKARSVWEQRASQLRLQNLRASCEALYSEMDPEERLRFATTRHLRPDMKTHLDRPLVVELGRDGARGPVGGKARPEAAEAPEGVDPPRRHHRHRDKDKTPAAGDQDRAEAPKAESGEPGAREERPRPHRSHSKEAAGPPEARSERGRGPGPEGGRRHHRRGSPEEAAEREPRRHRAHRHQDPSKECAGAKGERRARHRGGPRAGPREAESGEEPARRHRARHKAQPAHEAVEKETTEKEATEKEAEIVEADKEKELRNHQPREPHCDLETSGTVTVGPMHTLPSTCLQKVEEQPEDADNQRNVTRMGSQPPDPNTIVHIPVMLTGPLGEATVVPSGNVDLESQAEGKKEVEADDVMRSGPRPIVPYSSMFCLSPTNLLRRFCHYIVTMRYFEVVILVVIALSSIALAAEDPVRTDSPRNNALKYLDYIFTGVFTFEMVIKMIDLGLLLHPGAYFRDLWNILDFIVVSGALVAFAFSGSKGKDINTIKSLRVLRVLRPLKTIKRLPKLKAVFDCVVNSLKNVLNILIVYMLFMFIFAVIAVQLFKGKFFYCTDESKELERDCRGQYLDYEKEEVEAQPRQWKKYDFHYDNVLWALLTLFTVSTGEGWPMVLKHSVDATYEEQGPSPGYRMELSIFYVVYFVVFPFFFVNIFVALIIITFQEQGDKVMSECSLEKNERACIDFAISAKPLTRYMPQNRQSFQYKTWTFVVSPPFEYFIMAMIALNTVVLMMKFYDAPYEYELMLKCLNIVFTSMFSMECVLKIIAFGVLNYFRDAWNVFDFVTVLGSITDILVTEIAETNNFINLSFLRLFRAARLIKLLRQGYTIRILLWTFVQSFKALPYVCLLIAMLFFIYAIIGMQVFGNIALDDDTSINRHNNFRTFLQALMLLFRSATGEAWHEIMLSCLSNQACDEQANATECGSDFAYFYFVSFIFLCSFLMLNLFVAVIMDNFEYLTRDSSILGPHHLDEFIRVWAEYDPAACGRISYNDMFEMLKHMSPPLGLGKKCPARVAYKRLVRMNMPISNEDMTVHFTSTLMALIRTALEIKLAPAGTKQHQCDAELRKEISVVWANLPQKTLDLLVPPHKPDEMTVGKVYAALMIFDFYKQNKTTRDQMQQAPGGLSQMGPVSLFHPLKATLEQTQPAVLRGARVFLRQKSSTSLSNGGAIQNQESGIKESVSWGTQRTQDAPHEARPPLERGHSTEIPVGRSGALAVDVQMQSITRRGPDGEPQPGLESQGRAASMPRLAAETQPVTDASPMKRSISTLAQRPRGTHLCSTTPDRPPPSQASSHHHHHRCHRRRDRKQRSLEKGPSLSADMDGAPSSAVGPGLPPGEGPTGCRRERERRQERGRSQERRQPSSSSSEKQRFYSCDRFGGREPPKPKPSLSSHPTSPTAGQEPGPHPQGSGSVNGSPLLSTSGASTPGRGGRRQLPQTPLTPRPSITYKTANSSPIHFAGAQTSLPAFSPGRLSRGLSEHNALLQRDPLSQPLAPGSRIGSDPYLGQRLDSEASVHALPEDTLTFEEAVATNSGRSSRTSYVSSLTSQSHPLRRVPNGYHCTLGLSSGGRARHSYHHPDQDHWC
T1 sequence (Q02410 whole entry): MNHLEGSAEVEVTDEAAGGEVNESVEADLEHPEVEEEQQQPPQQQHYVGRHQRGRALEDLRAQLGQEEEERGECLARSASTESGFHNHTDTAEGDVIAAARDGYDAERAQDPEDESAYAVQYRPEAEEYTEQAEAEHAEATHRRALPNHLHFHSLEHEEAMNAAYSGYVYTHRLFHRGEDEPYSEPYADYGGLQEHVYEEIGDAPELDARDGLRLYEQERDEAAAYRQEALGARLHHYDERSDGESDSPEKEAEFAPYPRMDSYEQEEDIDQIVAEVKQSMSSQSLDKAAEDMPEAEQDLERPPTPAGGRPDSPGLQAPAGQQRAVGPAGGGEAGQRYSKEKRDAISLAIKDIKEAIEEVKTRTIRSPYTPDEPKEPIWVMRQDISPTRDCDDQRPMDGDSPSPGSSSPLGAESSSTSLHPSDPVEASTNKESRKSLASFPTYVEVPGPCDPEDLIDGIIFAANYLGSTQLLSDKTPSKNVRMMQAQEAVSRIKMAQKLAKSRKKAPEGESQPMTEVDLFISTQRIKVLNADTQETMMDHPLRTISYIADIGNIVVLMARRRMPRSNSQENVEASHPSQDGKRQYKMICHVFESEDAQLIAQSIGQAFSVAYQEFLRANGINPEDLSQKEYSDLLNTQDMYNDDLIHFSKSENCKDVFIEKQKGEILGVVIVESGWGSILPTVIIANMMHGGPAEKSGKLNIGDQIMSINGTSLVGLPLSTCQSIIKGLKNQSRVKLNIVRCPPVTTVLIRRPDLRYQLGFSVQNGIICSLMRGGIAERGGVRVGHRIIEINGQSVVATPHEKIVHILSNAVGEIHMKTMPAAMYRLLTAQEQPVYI
Chain of DNA dC->dU-editing enzyme APOBEC-3G (Q9HC16 whole entry): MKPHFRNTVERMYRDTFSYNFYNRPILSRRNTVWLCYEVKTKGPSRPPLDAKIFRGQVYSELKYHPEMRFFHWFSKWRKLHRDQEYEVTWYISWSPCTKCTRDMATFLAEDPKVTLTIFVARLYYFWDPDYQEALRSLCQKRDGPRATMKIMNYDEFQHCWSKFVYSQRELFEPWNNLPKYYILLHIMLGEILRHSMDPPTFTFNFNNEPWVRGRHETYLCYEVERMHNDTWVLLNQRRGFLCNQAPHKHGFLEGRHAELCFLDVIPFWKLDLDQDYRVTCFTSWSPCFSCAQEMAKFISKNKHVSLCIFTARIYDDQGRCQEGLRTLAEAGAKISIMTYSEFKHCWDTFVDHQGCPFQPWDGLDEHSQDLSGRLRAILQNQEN
Chain of Neurotensin receptor type 1 (P30989 whole entry, the tested form may be a part): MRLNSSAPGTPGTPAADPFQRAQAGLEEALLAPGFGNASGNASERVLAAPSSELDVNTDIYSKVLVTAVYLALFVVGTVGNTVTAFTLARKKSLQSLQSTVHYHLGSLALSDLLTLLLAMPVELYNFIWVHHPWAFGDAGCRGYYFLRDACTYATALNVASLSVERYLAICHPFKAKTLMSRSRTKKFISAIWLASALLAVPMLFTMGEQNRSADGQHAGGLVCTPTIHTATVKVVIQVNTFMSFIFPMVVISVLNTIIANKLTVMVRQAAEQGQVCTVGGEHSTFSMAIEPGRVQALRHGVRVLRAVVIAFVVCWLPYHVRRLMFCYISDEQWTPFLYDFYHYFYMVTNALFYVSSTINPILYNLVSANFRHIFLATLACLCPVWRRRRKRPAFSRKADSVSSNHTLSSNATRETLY

| Structure (SMILES) | EC50 [12] | EC50 [15] | IC50 [17] | IC50 [18] | IC50 [19] | EC50 [20] | IC50 [21] | other results |
| --- | --- | --- | --- | --- | --- | --- | --- | --- |
| O=S(=O)(Cc1ccccc1)N=Nc1c(O)[nH]c2ccc(Br)cc12 |  |  |  |  |  |  |  | IC50 [1]: 44.3 µM (active) |
| CCCc1ccc(/C=C2\C(=O)c3ccccc3C(O)=C2C(=O)OCC)cc1 |  |  |  |  |  |  |  | IC50 [2]: 9.62 µM (active); EC50 [3]: > 38 µM (not active); AC50 [4]: 5.54 µM (active); EC50 [5]: 8.95 µM (active); IC50 [6]: 2.32 µM (not active); IC50 [7]: 5.7 µM (active); IC50 [8]: 7.19 µM (active); IC50 [9]: 5.12 µM (active); EC50 [10]: 56.4 µM (inconclusive) |
| Nc1ccc2c(c1)C1C=CCC1C(c1ccccc1)N2 (configuration not stated) |  |  |  |  |  |  |  | IC50 [11]: > 100 µM (inactive) |
| COc1ccc(C(Nc2ccccn2)c2c(NC(=O)c3ccco3)sc(C)c2C)cc1OC (configuration not stated) | 1.19 µM (active) |  |  |  |  |  |  |  |
| O=C(CSc1ncnc2c1oc1ccccc12)N1CCCc2ccccc21 |  | 11.9 µM (active) | 5.25 µM (inactive) | 4.86 µM (active) | 9.45 µM (active) | 5.08 µM (active) | > 20 µM (inactive) | EC50 [13]: 85.1 µM (not active); EC50 [14]: > 79.4 µM (not active); EC50 [16]: > 79.4 µM (inactive) |
| CC1CCc2nc(NC(=O)CSc3nc4ccccc4o3)sc2C1 (configuration not stated) |  | > 20 µM (inactive) | 5.28 µM (active) | 3.36 µM (active) | 15.4 µM (active) | 5.78 µM (active) | > 20 µM (inactive) |  |
| O=C(Nc1cccnc1)c1cc2c(ccc3ccccc32)o1 |  |  |  |  |  |  |  | IC50 [22]: > 64 µM (inactive) |
| O=c1c2ccccc2nc(SCc2ccc([N+](=O)[O-])cc2)n1CCCO | 0.376 µM (active) |  |  |  |  |  |  | IC50 [23]: 10.2 µM (active); IC50 [24]: 5.59 µM (active) |
| Nc1cc(=O)nc(SCC(=O)N2CCN(c3ccccc3)CC2)n1-c1ccc(F)cc1 | 6.68 µM (active) |  |  |  |  |  |  |  |
| CCc1nc2ccccc2c(C(=O)OCC(=O)Nc2cccc(S(=O)(=O)N3CCOCC3)c2)c1C |  | 12.8 µM (active) | 5.81 µM (inactive) | 4.01 µM (active) | 9.75 µM (active) | 5.64 µM (active) | > 20 µM (inactive) | AC50 [25]: 13.9 µM (active); AC50 [26]: 44.6 µM (active); EC50 [27]: 10.2 µM (active); AC50 [28]: 31.5 µM (active) |
